Test results reported in patent US5015661A, “Chromanes and their pharmaceutical compositions and methods” (Hoffmann-La Roche Inc., priority 1989, dated 1991).
Counter-ions that a name gives are not always drawn.

biological target: T1, Δ^5 -lipoxygenase from rat basophilic leukemia (RBL-1) cells (Rattus norvegicus, UniProt P12527); test: In vitro test for Δ^5 -lipoxygenase inhibitors (5-LO), RBL-1 cell enzyme, 5-HETE radioimmunoassay; assay type: biochemical; conditions: RBL-1 5-LO; 10 min preincubation; 8.25 μM arachidonic acid, 10 min at 37° C.; 5-HETE formation; read-out: 5-LO IC-50
T1 construct: endogenous in cells; host or cells: RBL-1 rat basophilic leukemia cells (ATCC CRL 1378); 113,000×g supernatant (cytosolic fraction)
T1 sequence (P12527 1-673): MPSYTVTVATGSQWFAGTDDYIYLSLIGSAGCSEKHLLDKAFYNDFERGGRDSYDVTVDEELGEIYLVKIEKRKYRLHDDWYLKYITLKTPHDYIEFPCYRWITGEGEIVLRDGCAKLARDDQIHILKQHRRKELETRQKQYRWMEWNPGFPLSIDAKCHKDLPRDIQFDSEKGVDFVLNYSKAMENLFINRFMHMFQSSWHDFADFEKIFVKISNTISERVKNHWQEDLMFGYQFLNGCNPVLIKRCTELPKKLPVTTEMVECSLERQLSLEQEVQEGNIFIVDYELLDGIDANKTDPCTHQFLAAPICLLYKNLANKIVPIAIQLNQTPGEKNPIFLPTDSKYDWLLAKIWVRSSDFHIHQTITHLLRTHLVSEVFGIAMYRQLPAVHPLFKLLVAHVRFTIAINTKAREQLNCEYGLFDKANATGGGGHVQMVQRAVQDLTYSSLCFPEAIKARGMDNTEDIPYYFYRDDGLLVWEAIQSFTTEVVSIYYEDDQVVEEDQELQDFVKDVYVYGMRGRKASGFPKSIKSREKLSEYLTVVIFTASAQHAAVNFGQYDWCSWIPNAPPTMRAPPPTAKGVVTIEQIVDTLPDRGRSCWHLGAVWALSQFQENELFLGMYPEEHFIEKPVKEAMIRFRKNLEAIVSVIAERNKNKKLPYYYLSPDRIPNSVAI
Protocol: IN VITRO TEST FOR Δ^5 -LIPOXYGENASE INHIBITORS Compounds of formula I of the invention were tested for their effect on Δ^5 -lipoxygenase from rat basophilic leukemia (RBL-1) cells. Materials. RBL-1 cells (CRL 1378) were obtained from the American TYpe Culture Collection, Rockville, MD. DMEM and glutamine were purchased from Flow Labs, McLean, VA. FBS (Gibco, Grand Island, NY) was heat-inactivated for 1 hour at 56° C. Reagents for protein determinations were obtained from Biorad, Rockville Center, NY. Arachidonic acid (approx. 99%), ATP (disodium slat), BHT, dextran (clinical grade), tetrasodium EDTA, gelatin, gentamycin sulfate solution, reduced glutathione, 1 M HEPES buffer, indomethacin, NaCl, reduced NADpH, Trizma 7.2, and Trizma 8.5 were purchased from Sigma Chemical, St. Louis, MO. CaCl2 dihydrate, Norit A charcoal, and citric acid monohydrate were obtained from Fisher Scientific, Pittsburgh, PA. […] MA. A synthetic 5-HETE standard was supplied by Dr. M. Rosenberger, Dept. of Medicinal Chemistry, Hoffmann-La Roche, Nutley, NJ; [see Corey, E.J., and Hashimoto, S. (1981 ) Tet. Letters, 22, 299-302 for method of preparation]. Ecoscint liquid sointillation fluid was purchased from National Diagnostics, Sommerville, NJ. Isolation of 5-lipoxygenase. […] Approximately 7-9 days after thawing, RBL-1 cells growing in log phase were seeded at a density of 7500 viable cells/ml in a closed 89-liter spinner flask. The cells were stirred constantly for 3-4 days at 37° C. until they reached a density greater than 500,000/ml but less than 800,00/ml. RBL-1 cells were harvested by centrifugation at 4° C. at 1500×g for 10 minutes and were washed 3 times with ice cold 0.05 M tris-HCl, pH 7.2, tetrasodium EDTA (buffer 1). The cells were washed last in 0.05 M Tris-HCl containing 14 μM indomethacin, 1 mM glutathione, 1.5 mM NaCl, and 1 mM tetrasodium EDTA (buffer 2), resuspended at a density of 5×108'/ml (approximately 10 ml) and disrupted manually at 4° C. using a 40 ml Dounce (type A pestle) homogenizer. After 5 minutes of homogenization. 95% cell lysis was confirmed by phase contrast microscopy. The broken cells were diluted 1:2 with buffer 2 and centrifuged at 12,380×g for 10 minutes at 4° C. to pellet cellular debris and granules. The 12,380×g supernatant was centrifuged at 113,000×g for 60 minutes to pellet microsomes. The high-speed supernatant (5.9±0.48 mg/ml protein) was frozen immediately in 1 ml aliquots using a dry ice/acetone bath. The isolated cytosolic fraction was stored in liquid N2 for up to 8 weeks without loss of 5-LO enzyme activity. Lipoxygenase Assay. Compounds Were dissolved at 25 mM concentration in DMSO, then diluted to final concentrations using 95% ethanol. For a typical enzyme assay, the partially purified 5-LO preparation was preincubated with drug or vehicle for 10 minutes at 30° C. The assay tubes were then transferred at a 37° C. water bath where they received arachidonic acid (8.25 μM final concentration) to initiate 5-LO activity. In addition to enzyme and substrate, each reaction tube contained: 12.5 μmoles of Tris-HCl (pH 7.2), 25 nmoles glutathione, 0.35 nmoles indomethacin and 1.25 μmoles of CaCl2 and ATP to yield a total of volume of 250 μl. The enzyme reaction was terminated after 10 minutes by the addition of 75μl […] citric acid to yield pH 3.5. The samples were immediately cooled on ice and neutralized by dilution with 0.05 M Tris-HCl, pH 8.5, which contained 25 mg/1 BHT. A boiled cytosol control was placed at the end of each assay to measure non-enzymatic oxidation of arachidonic acid. The mean specific activity of the 5-LO enzyme preparation was approximately 66.16±14.39 pmol 5-HETE/min/mg protein. Radioimmunoassay for 5-HETE. Under the assay conditions described, the 5-LO catalyzed the conversion of arachidonic acid to 5-HPETE which, as a consequence o peroxidase activity, was reduced to 5-HETE. A specific radioimmunoassay was employed to quantitate the amount (pmoles) of 5-HETE formed during the enzyme reaction. […]

Compound	IC50
Cc1c(C)c2c(c(C)c1O)CCC(C)(C#Cc1ccccc1NC(=O)C(F)(F)F)O2 (racemic) [Example 44, rac-2,2,2-Trifluoro-N-{2-[(3,4-dihydro-6-hydroxy-2,5,7,8-tetramethyl-2H-1-benzopyran-2-yl)ethynyl]phenyl}acetamide]	10 nM
Cc1c(C)c2c(c(C)c1O)CCC(C)(C#Cc1ccc3c(c1)N(C(=O)C(F)(F)F)CCO3)O2 (racemic) [Example 45, rac-3,4-Dihydro-6-[(3,4-dihydro-6-hydroxy-2,5,7,8-tetramethyl2H-1-benzopyran-2-yl)ethynyl]-4(trifluoroacetyl)-2H-1,4-benzoxazine]	45 nM
Cc1c(C)c2c(c(C)c1O)CCC(C)(C#Cc1ccc3c(c1)NCCO3)O2 (racemic) [Example 47, rac-2-[(3,4-dihydro-2H-1,4-benzoxazine-6-yl)ethynyl]-3,4-dihydro-2,5,7,8-tetramethyl-2H-1-benzopyran-6-ol hydrochloride]	18 nM
CC(=O)Oc1cc(CCC2(C)CCc3c(C)c(O)c(C)c(C)c3O2)ccc1O (racemic) [Example 67, rac-4-[2-(3,4-Dihydro-6-hydroxy-2,5,7,8-tetramethyl-2H-1-benzopyran-2-yl)ethyl]-1,2-benzenediol-2-acetate]	38 nM
COc1cc(CN)cc(CCC2(C)CCc3c(C)c(O)c(C)c(C)c3O2)c1O (racemic) [Example 68, rac-{2-[5-(Aminomethyl)-2-hydroxy-3-methoxyphenyl]ethyl}-3,4-dihydro-2,5,7,8-tetramethyl-2H-1-benzopyran-6-ol hydrochloride]	70 nM

biological target: superoxide-dependent, iron-promoted lipid peroxidation of native rat heart cardiac lipid liposomes; test: Lipid peroxidation inhibition (in vitro testing of antiperoxidative agents, ANTI-OX), hypoxanthine-xanthine oxidase-Fe3+.ADP, rat cardiac liposomes, MDA equivalents; assay type: biochemical; conditions: 60 min, 37° C., screened at 1.0 μM, IC50 determined if inhibition ≥ 50%, read-out: ANTI-OX IC-50
Protocol: The test system employs hypoxanthine-xanthine oxidase (XO)-Fe^3+. ADP as the free radical generator and purified, native rat-heart membrane phosphoglyceride in Hepes-KCl buffer, pH 7.4, as the substrate. Inhibition of superoxide-dependent, iron-promoted lipid peroxidation in the linear reaction phase (after 1 hour of reaction) is measured as the net formation of thiobarbituric acid (TBA)-reactive material. In this system, the TBA-reactive material, isolated by HPLC, is exclusively (>95%) malondialdehyde (MDA), a fragmentation end-product arising from fatty acyl hydroperoxides and cyclic endoperoxides. […]
a) Isolation and purification of Rat Cardiac Lipid
Conscious male Sprague-Dawley rats (~275g) maintained on a normal rodent diet were decapitated. The hearts were rapidly removed and perfused via the aorta with ice-cold 10 mM Hepes buffer, pH 7.4. The aorta and atria were removed, and the ventricular tissue was blotted and weighed (wet weight). The hearts were minced on ice with scissors and finally homogenized (100 mg tissue/ml ice-cold buffer) for 15 seconds (3×5 seconds) with a Tekmar Tissumizer at "maximal" setting. The homogenate was filtered through 4-ply cheesecloth, and homogenate lipids were extracted and purified by a modified Bligh-Dyer procedure (M.D. Marshall and M. Kates, Biochem. Biophys. Acta 260, 558 (1972). The cardiac lipids were stored in CHCl3 under nitrogen at -20° C. […]
b) Preparation of Cardiac Liposomes
Liposomes were prepared from extracted and purified, native rat heart cardiac lipid and were used as substrate for free-radical attack. Cardiac lipid (in CHCl3) was placed in a glass flask and evaporated to dryness under nitrogen at room temperature; the flask was gently rotated during evaporation to yield a thin, dry lipid film. The lipid was taken up in 10 mM Hepes-0.145M KCl, pH 7.4, and was resuspended by indirect an aerobic sonification for 15 minutes at room temperature. The liposome suspension was used immediately. […]
c) preparation of Fe^3+ -ADP Chelate
A chelate was formed in Hepes-KCl buffer between Fe^3+ (1.0mM FeCl3, final concentration) and ADP (10mM, final concentration) at pH 7.4 with stirring at room temperature. Chelation was allowed to proceed for 90 minutes prior to use. The chelate was prepared fresh for each days experiments to ensure iron solubility, effective chelation, and valence state. […]
d) Thiobarbituric Acid Reaction or Determination of Malondialdehvde Equivalents Malondialdehyde (MDA) equivalents were measured as thiobarbituric acid (TBA)-reactive material by the following modification of published methods. The reaction mixture. prepared fresh daily, contained water: BHT ([…] BHT in absolute ethanol): TBA (1.5% TBA in 0.2M Tris, pH 7.0) in the volume ratio 1:1:5. To each 1.0 ml of peroxidation reaction assayed (see below), 0.35 ml reaction mixture was added. After thorough mixing, the tubes were incubated in an 80° C. shaking water bath for 30 minutes. After this time, the tubes were plunged into an ice water bath, and the reaction was immediately stopped with 0.5 ml ice-cold 91% TCA followed by 2.0 ml CHCl3 After centrifugation for 30 minutes at 2000 rpm in a Sorval HL-8 rotor (4° C.), the absorbance of the washed, pink upper phase was read at 532 nm. A standard curve (0.8-40.0 nmol MDA) was run with every assay. For each curve, MDA was freshly prepared by acidification of 1,1,3,3 -tetraethoxypropane with 75% TCA-2.3N HCl (0.15 ml acid mixture with 1.0 ml suitably diluted tetraethoxypropane). Computer-assisted regression analysis of the standard curve was used to quantify the molar amounts of MDA equivalents in the experimental samples. […]
e) Lipid peroxidation Reaction
Cardiac liposomes were subjected to superoxidedependent. iron-promoted peroxidation in glass vessels to avoid the well-known antioxidant effects of many common polymerizing agents used to fabricate plastic labware. […]

Compound	IC50
CCCc1cc(C#CC2(C)CCc3c(C)c(O)c(C)c(C)c3O2)ccc1O (racemic) [Example 37, rac-3,4-Dihydro-2-[(4-hydroxy-3-propylphenyl)ethynyl]-2,5,7,8-tetramethyl-2H-1-benzopyran-6-ol]	> 1000 nM
